# Test results reported in US9999609B2, “Methods for treating or preventing fatigue” (SK Biopharmaceuticals Co., Ltd., priority 2009, dated 2018).
# How the values were obtained:
# Type in all cases: in vivo
# [1] = system: hypocretin cell ablated narcoleptic mice (prepororexin/ataxin-3 transgenic) and their littermate wild-type mice; assay: Sleep parameters (EEG/EMG polygraph) in narcoleptic and wild-type mice after oral dosing; settings: for duration of continuous wakefulness: resting period (ZT 2), most wild-type and narcoleptic mice
# Description: The polygraph signal (EEG and EMG) was captured with SleepSign (Kissei Comtech), and the sleep stage was visually scored with 10 sec epoch for wakefulness, non-REM sleep and REM sleep. Scoring criteria are: Wakefulness is characterized by desynchronized low-amplitude, mixed frequency (>4 Hz) EEG and high EMG activity. Rhythmic alpha (8-9 Hz) wave (with high EMG activities) may also appear. Non-REM is characterized by synchronized, high-amplitude, low-frequency (0.25-4 Hz) with reduced EMG activity (compared to wakefulness). EEG activity in REM sleep is similar to that in wakefulness, with desynchronized, mixed frequency low amplitude waves. Rhythmic alpha (8-9 Hz) wave with reduced EMG activities may also appear. […] is reduced even further and in many cases, completely absent. Same muscle twitching may be apparent in the EMG trace during REM sleep.
# Three drug doses of the test compound (50, 100 and 150 mg/kg PO) plus vehicle, were orally administered at ZT 2 (2 hours after light on) or ZT14 (2 hours after light off), and the effects on sleep were monitored for 6 hours after the drug administration (the sleep data was collected for 30 hours after the drug injection, and are available for further analysis). The doses for modafinil were 50 and 200 mg/kg PO (plus vehicle), and modafinil was also administered at ZT 2 and […]
# If the polygraph signals of some mice were not sufficient to score the sleep stage with accuracy (especially bad EMG), data from these animals were excluded, and the minimum of 5 animals (except for the highest dose of the test compound in wild-type mice in dark period, n=4) were included for the data analysis and number of animals were indicated in the figures.
# Effects of test compound and modafinil on the amount of wake, non-REM sleep, REM sleep (cumulative seconds), number of episodes for each sleep stage during 6 hours, and mean wake/sleep-bout lengths (seconds) were analyzed in each animal and the mean of each parameter was calculated in each genotype. The effects of compounds on wake and sleep amounts are useful to evaluate the wake promoting potency, and the number of episodes for each sloop stage and the mean wake/sleep bout length are parameters for evaluating the sleep fragmentation. Amphetamine and modafinil, two main wake-promoting compounds currently used for the treatment of EDS associated with various etiologies (narcolepsy, idiopathic hypersomnia and secondary EDS), are known to increase wake time and prolong wake bout length in normal and EDS conditions.
# A comparison of the effects between hypocretin deficient and wild-type mice is very useful in determining the wake-promotion of the test compound is dependent on the availability of hypocretins, and if there is a possible change in the sensitivity of the receptive mechanisms of test compound in narcoleptic mice due to the hypocretin ligand deficiency.
# [2] = system: C57BL/6J, AKR/J and DBA/2J mice; assay: Sleep onset and vigilance states in three inbred mouse strains after IP injection
# Method: At least 7 adult male mice of inbred strains C57BL/6J, AKR/J, and DBA/2J were recorded in 2 sessions of 72 continuous hours. The first 24 h in each session are considered as baseline followed the next day by the saline injection and the next day by 150 mg/kg of the test compound in the first session and 5 mg/kg d-amphetamine in the second session. The two sessions were separated by 7 days (wash-out period) and all injections were intraperitoneal (IP) and performed at light onset (9 am) in a volume of 5 ml/kg.
# [3] = system: male adult Sprague Dawley rats; assay: Sleep-wake organization (EEG/EOG/EMG) in rats after acute i.p. administration; settings: for Duration Active wake / Duration Deep sleep / Duration Intemediate stage / Duration Light sleep / Duration Passive wake / Duration REM sleep / Latency ISWS / Latency REM sleep / Latency dSWS / Shifts: Shift from ISWS to AW / Shifts: Shift from ISWS to PW / Shifts: Shift from REMS to AW / Shifts: Shift from REMS to PW / Shifts: Shift from dSWS to AW / Shifts: Shift from dSWS to PW: rats, mean ± s.e.m of 8 rats; for Duration Active wake / Duration Deep sleep / Duration Intemediate stage / Duration Light sleep / Duration Passive wake / Duration REM sleep: 16 h recording
# [4] = system: adult human subjects with moderate or severe major depression without psychotic features; assay: Randomized double-blind placebo- and active-controlled 6-week study in major depression; settings: for ABCD questionnaire items (of 51) with statistically significant superiority to placebo: post hoc analyses
# Description: This was a randomized, double-blind, parallel-group, active, and placebo-controlled, multicenter study conducted in the U.S. (23 centers) and Canada (4 centers). There were 2 phases: a pretreatment phase (screening/washout and a baseline visit) and a 6-week, double-blind treatment phase. Paroxetine, a positive control, was included to evaluate assay sensitivity. After washout (if needed) of prohibited substances, subjects were randomly assigned (1:1:1:1) to receive the test compound titrated to a target dose of 200 mg/day or 400 mg/day, matching placebo, or a fixed dose (20 mg/day) of paroxetine. Study drug was given twice daily for 6 weeks. Efficacy and safety were assessed weekly during the double-blind phase. Subjects completing the study underwent an Exit Interview (“Your Health and Well-Being”) and completed an Assessment of Benefits of Clinical-trial Drug-treatment (ABCD) questionnaire (U.S. sites only).
# [5] = 3 mg/kg i.p., 16 hours recording
# [6] = 30 mg/kg i.p., 16-h post-injection
structure (smiles),measurement,setting,value
"NC(=O)OC[C@H](N)Cc1ccccc1 [test compound, (R)-(beta-amino-benzenepropyl) carbamate]",duration of continuous wakefulness,[1]; 50 mg/kg PO,up to 3 hours
same,duration of continuous wakefulness,[1]; 100 mg/kg PO,≤ 4 h
same,duration of continuous wakefulness,[1]; 150 mg/kg PO,≤ 5 h
same,bouts of wakefulness,"[1]; 50-150 mg/kg PO, wild-type and narcoleptic mice",significantly increased bouts of wakefulness
same,effect on wakefulness,"[1]; active (dark) period, ZT14, PO",dose-dependently increased wakefulness
same,wake amounts in narcoleptic mice relative to wild-type mice,"[1]; active period, 100 and 150 mg/kg PO",brought up to the levels of wild-type mice
same,amounts of non-REM and REM sleep in narcoleptic mice relative to wild-type mice,"[1]; active period, PO",brought down to the levels of wild-type mice
same,Non-REM and REM sleep during the period of continuous wakefulness,"[1]; resting period, 50, 100, 150 mg/kg PO",completely suppressed
same,EEG patterns after administration,"[1]; resting period, 50-150 mg/kg PO",no abnormal EEG patterns
same,effect on REM sleep,"[1]; resting period, PO",potently reduced REM sleep
same,wake-promoting effects,"[1]; resting period, wild-type and hypocretin-deficient narcoleptic mice, PO",Very potent wake-promoting effects
same,genotype effect on wake time referenced to sleep latency after saline,[2]; 150 mg/kg IP,no genotype effect
same,duration of induced continuous wakefulness (sleep latency),"[2]; 150 mg/kg IP at light onset, three inbred strains",up to 4.5 hours
same,wakefulness duration compared with d-amphetamine 5 mg/kg,"[2]; 150 mg/kg IP, hourly wakefulness over 72 h recordings",significantly longer wakefulness duration than amphetamine
same,increase in total light sleep vs vehicle,[3]; [5],+26%
same,increased drive to wakefulness from deep sleep vs vehicle,[3]; [5],+15%
same,increased drive to wakefulness from light sleep vs vehicle,[3]; [5],+46%
same,increase in shifts from REM sleep towards active wakefulness vs vehicle,[3]; 10 mg/kg i.p.,+16%
same,increase in total duration of light sleep vs vehicle,[3]; 10 mg/kg i.p.,+24%
same,change in number of epochs of REM sleep,[3]; 30 mg/kg i.p.,−24%
same,change in number of epochs of active wakefulness,[3]; 30 mg/kg i.p.,+19%
same,change in number of epochs of light sleep,[3]; 30 mg/kg i.p.,−23%
same,change in number of epochs of passive wakefulness,[3]; 30 mg/kg i.p.,−30%
same,mean durations of sleep wake states,[3]; 30 mg/kg i.p.,not modified
same,onset of activity after administration,[3]; 30 mg/kg i.p.,~30 min
same,change of total time spent in REM sleep vs vehicle,[3]; [6],−25%
same,change of total time spent in active wakefulness vs vehicle,[3]; [6],+19%
same,change of total time spent in light sleep vs vehicle,[3]; [6],−20%
same,change of total time spent in passive wakefulness vs vehicle,[3]; [6],−29%
same,overall profile of effects,"[3]; 30 mg/kg i.p., beginning of the administration",psychostimulant-like properties
same,duration of rebound increase in deep sleep,"[3]; 30 mg/kg i.p., starting 3 hours after administration",about 7 hours
same,duration of central activity after injection,[3]; i.p.,at least 4 hours
same,time of peak in effect post administration,[3]; i.p.,around 2 hours
same,Duration Active wake,[3]; 3 mg/kg i.p.,290.0 ± 11.2 min
same,Duration Deep sleep,[3]; 3 mg/kg i.p.,125.0 ± 24.6 min
same,Duration Intemediate stage,[3]; 3 mg/kg i.p.,2.9 ± 0.7 min
same,Duration Light sleep,[3]; 3 mg/kg i.p.,374.7 ± 16.6 min
same,Duration Passive wake,[3]; 3 mg/kg i.p.,79.5 ± 10.7 min
same,Duration REM sleep,[3]; 3 mg/kg i.p.,84.0 ± 5.4 min
same,Latency ISWS,[3]; 3 mg/kg i.p.,15.6 ± 4.1 min
same,Latency REM sleep,[3]; 3 mg/kg i.p.,66.0 ± 11.8 min
same,Latency dSWS,[3]; 3 mg/kg i.p.,42.0 ± 8.5 min
same,Shifts: Shift from ISWS to AW,[3]; 3 mg/kg i.p.,217.8 ± 55.5 number
same,Shifts: Shift from ISWS to PW,[3]; 3 mg/kg i.p.,78.1 ± 35.8 number
same,Shifts: Shift from REMS to AW,[3]; 3 mg/kg i.p.,78.0 ± 21.6 number
same,Shifts: Shift from REMS to PW,[3]; 3 mg/kg i.p.,3.7 ± 3.0 number
same,Shifts: Shift from dSWS to AW,[3]; 3 mg/kg i.p.,9.7 ± 6.6 number
same,Shifts: Shift from dSWS to PW,[3]; 3 mg/kg i.p.,6.6 ± 5.9 number
same,Duration Active wake,[3]; 10 mg/kg i.p.,305.5 ± 15.1 min
same,Duration Deep sleep,[3]; 10 mg/kg i.p.,104.0 ± 19.3 min
same,Duration Intemediate stage,[3]; 10 mg/kg i.p.,5.2 ± 0.7 min
same,Duration Light sleep,[3]; 10 mg/kg i.p.,366.6 ± 21.2 min
same,Duration Passive wake,[3]; 10 mg/kg i.p.,73.1 ± 13.2 min
same,Duration REM sleep,[3]; 10 mg/kg i.p.,102.3 ± 4.6 min
same,Latency ISWS,[3]; 10 mg/kg i.p.,30.4 ± 7.9 min
same,Latency REM sleep,[3]; 10 mg/kg i.p.,87.5 ± 14.5 min
same,Latency dSWS,[3]; 10 mg/kg i.p.,127.2 ± 67.1 min
same,Shifts: Shift from ISWS to AW,[3]; 10 mg/kg i.p.,204.5 ± 56.4 number
same,Shifts: Shift from ISWS to PW,[3]; 10 mg/kg i.p.,84.4 ± 40.5 number
same,Shifts: Shift from REMS to AW,[3]; 10 mg/kg i.p.,94.1 ± 24.0 number
same,Shifts: Shift from REMS to PW,[3]; 10 mg/kg i.p.,8.9 ± 6.7 number
same,Shifts: Shift from dSWS to AW,[3]; 10 mg/kg i.p.,4.2 ± 3.1 number
same,Shifts: Shift from dSWS to PW,[3]; 10 mg/kg i.p.,12.5 ± 8.5 number
same,Duration Active wake,[3]; 30 mg/kg i.p.,371.6 ± 7.7 min
same,Duration Deep sleep,[3]; 30 mg/kg i.p.,214.9 ± 15.6 min
same,Duration Intemediate stage,[3]; 30 mg/kg i.p.,4.0 ± 1.0 min
same,Duration Light sleep,[3]; 30 mg/kg i.p.,235.8 ± 14.3 min
same,Duration Passive wake,[3]; 30 mg/kg i.p.,57.3 ± 4.7 min
same,Duration REM sleep,[3]; 30 mg/kg i.p.,72.9 ± 7.3 min
same,Latency ISWS,[3]; 30 mg/kg i.p.,73.6 ± 25.7 min
same,Latency REM sleep,[3]; 30 mg/kg i.p.,251.8 ± 32.0 min
same,Latency dSWS,[3]; 30 mg/kg i.p.,174.6 ± 12.3 min
same,Shifts: Shift from ISWS to AW,[3]; 30 mg/kg i.p.,221.9 ± 58.3 number
same,Shifts: Shift from ISWS to PW,[3]; 30 mg/kg i.p.,74.2 ± 29.0 number
same,Shifts: Shift from REMS to AW,[3]; 30 mg/kg i.p.,65.1 ± 21.8 number
same,Shifts: Shift from REMS to PW,[3]; 30 mg/kg i.p.,4.1 ± 3.2 number
same,Shifts: Shift from dSWS to AW,[3]; 30 mg/kg i.p.,8.7 ± 5.3 number
same,Shifts: Shift from dSWS to PW,[3]; 30 mg/kg i.p.,17.6 ± 12.0 number
same,ABCD questionnaire items (of 51) with statistically significant superiority to placebo,[4]; 200 mg,14 items
same,ABCD questionnaire items (of 51) with statistically significant superiority to placebo,[4]; 400 mg,8 items
same,secondary efficacy variables of mood and well-being,"[4]; one or both doses (200 and 400 mg/day), 6 weeks",statistically significantly greater efficacy than placebo
same,"Insomnia, treatment-emergent adverse event incidence","[4]; target dose 200 mg/day, 6 weeks",24%
same,"Insomnia, treatment-emergent adverse event incidence","[4]; target dose 400 mg/day, 6 weeks",35%
